Data on two compounds can be found in article PMC5704913 (Toxicology and applied pharmacology, 2017).

Molecules are shown by their SMILES. Entries after “also recorded” stand apart in the source; their conditions may differ.

One data set can be described thus: SOD activity assay. Format: biochemical. The note with it: unit = amount that inhibits one-half the formation of adrenochrome at pH 10.2.
A further data set is described as follows: H2O2 scavenging assay. The class given is biochemical. The note with it: read-out: H2O2 IC50; concentration that scavenged 50% of H2O2; 50 µM H2O2, 1 minute.
Data set [1] relates to respiring brain mitochondria. The following applies: ref Castello et al., 2008; cited from earlier work.
Another data set relates to MPTP-treated mice. The note with it: oral administration; ref Liang et al., 2007; cited from earlier work.
A short description of data set [2]: Brain manganese levels by ICPMS after 7 days daily dosing. The note with it: 15 mg/kg i.p. daily for 7 days. The class given is in vivo, C57BL/6 mice.
For another data set, the system named is C57BL/6 mice. Briefly: Open field test and accelerated rotarod test. The class given is in vivo. The note with it: 15 mg/kg i.p. daily for 7 days. In general terms: Falling from the rotarod earlier than controls is read as motor impairment.

On to `COC(=O)c1c2nc(c(C(F)(F)F)c3ccc([n-]3)c(C(=O)OC)c3nc(c(C(F)(F)F)c4ccc1[n-]4)C=C3)C=C2.[Cl-].[Mn+3]` [AEOL 11207], for which, in the data set “SOD activity assay”, the “SOD Activity” value came out at 124 U/mg. In addition, the IC50 (usually the point on the concentration scale where inhibition reaches its midpoint) in “H2O2 scavenging assay” was 104 nM. Moreover, the “H2O2 scavenging in respiring brain mitochondria (in words)” value in data set [1] is given as “potent H2O2 scavengers”. Besides, the “effect on MPTP-induced neurotoxicity (in words)” value in the data set on MPTP-treated mice is “inhibited MPTP-induced neurotoxicity”.
For `[Cl][Mn][Cl]` [MnCl2], in data set [2], the “brain manganese levels vs vehicle (in words)” value is “increased brain manganese levels significantly” and the “increase of brain manganese levels” value was ~ 10 fold. The “neurobehavioral changes (open field, rotarod) vs vehicle” value in the data set on C57BL/6 mice is listed as “significant deficit in movement; also recorded: significant rotarod deficit”.
